The results in this text go back to ChEMBL document CHEMBL1128725, “Design and synthesis of 1-heteroaryl-3-(1-benzyl-4-piperidinyl)propan-1-one derivatives as potent, selective acetylcholinesterase inhibitors” (J Med Chem, 1995).

In one assay the target is Cholinesterase (Homo sapiens, UniProt P06276).
The target in a further assay is Acetylcholinesterase (Homo sapiens, UniProt P22303).
Chain of Acetylcholinesterase (P22303 whole entry): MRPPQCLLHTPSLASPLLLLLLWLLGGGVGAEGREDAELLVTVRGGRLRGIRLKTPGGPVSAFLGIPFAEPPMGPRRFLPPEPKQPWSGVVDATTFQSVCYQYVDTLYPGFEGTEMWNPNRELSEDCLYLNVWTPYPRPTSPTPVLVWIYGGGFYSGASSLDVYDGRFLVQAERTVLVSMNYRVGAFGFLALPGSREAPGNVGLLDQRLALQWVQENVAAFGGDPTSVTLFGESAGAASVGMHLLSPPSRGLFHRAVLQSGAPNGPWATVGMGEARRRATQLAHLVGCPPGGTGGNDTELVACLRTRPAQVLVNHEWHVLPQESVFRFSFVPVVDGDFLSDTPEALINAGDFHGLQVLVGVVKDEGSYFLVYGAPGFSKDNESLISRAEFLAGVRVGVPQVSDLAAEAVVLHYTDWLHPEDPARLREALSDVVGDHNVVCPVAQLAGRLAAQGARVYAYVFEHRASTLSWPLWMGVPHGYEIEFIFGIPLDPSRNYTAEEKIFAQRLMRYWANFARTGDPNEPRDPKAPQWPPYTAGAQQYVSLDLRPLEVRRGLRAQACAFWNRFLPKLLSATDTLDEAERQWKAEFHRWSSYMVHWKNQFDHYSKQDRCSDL

Chain of Cholinesterase (P06276 whole entry): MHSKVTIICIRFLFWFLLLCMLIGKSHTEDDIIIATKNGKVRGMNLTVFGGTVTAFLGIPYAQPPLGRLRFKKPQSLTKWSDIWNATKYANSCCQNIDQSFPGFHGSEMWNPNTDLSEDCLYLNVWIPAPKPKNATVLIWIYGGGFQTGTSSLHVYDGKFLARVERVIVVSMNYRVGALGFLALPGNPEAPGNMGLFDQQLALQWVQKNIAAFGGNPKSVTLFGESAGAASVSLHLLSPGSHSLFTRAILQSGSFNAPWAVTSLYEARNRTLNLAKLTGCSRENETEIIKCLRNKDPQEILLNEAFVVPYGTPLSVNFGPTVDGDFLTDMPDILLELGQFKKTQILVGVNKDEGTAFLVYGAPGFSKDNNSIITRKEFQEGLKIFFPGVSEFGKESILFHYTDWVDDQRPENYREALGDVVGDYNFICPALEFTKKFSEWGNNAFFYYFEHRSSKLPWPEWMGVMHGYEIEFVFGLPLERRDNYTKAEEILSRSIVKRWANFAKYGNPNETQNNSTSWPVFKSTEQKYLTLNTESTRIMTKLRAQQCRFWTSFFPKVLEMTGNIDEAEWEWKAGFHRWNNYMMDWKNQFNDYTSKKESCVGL
Description for Acetylcholinesterase: Concentration required to inhibit 50% of Acetylcholinesterase obtained from human erythrocytes was determined in vitro

The IC50 is the point on the concentration scale where inhibition reaches its midpoint. Higher therefore signals a need for much substance. Take `O=C(CCC1CCN(Cc2ccccc2)CC1)c1ccc2[nH]c(-c3ccccc3)nc2c1`: the concentration for half-maximal inhibition (IC50) against Cholinesterase stood at 0.89 µM; on Acetylcholinesterase it was 0.033 µM.
For `Cc1nc2cc(C(=O)CCC3CCN(Cc4ccccc4)CC3)ccc2[nH]1` the same measures were 6.2 µM and 0.012 µM.
Taken in the same sequence, the figures for `Cc1nc2ccc(C(=O)CCC3CCN(Cc4ccccc4)CC3)cc2s1` were 3.4 µM and 0.0068 µM.
For the compound `O=C(CCC1CCN(Cc2ccccc2)CC1)c1ccccc1`, at Cholinesterase, 4.3 µM corresponded to half-maximal inhibition (IC50).
Take `CCn1c(C)nc2cc(C(=O)CCC3CCN(Cc4ccccc4)CC3)ccc21`: the half-inhibitory concentration (IC50) against Cholinesterase is 4.2 µM; against Acetylcholinesterase it was 0.0043 µM.
Taken in the same sequence, the figures for `O=C(CCC1CCN(Cc2ccccc2)CC1)c1ccc2c(c1)OCCO2` were 4.8 µM and 0.03 µM.
